This is an account of results in US8486994B2, “Prodrugs of substituted 1,3-dioxanes and their uses” (Evolva SA, priority 2007, dated 2013).

Series [1] is described as follows: Pharmacokinetics (plasma exposure) after i.v. or p.o. dosing, non-compartmental analysis. It counts as in vivo, male Wistar rats. The conditions noted are these: rat; for half-life: read-out: Terminal Half-life elimination, t½z. The method, then:
Animals were fasted overnight before dosing p.o. (gavage or capsule) or by bolus intravenous application. Blood samples (approx. 0.15 ml) were taken at different time points into heparinized tubes by automated blood sampling. Plasma was prepared and stored frozen until bioanalysis.
• to an aliquot of 10 μL plasma 30 μL ACN/EtOH (50/50, v/v) are added • vortex • 20 min 14000 rpm approx. 8° C. • Supernatant transfer in HPLC vial Liquid Chromatography
The samples were analyzed by mass spectroscopy using ESI (negative ion mode) as the ionization mode. Selected Reaction Monitoring:
The quantitatively measured plasma concentration-time data were subjected to non-compartmental analysis (NCA) using the PCModfit program (version 3.00) for Windows® running with Excel 2003 (http://home2.btconnect.com/Gamms/PCModfit/; Allen, G. D. ‘Modfit: a pharmacokinetics computer program’ Biopharm. and Drug Disp., Vol. 11, 477-498, 1990). The points selected in each profile for half-life estimation using numerical analysis, where possible, corresponded to the final linear phase as visually assessed from ln(concentration) vs. time plots. The terminal elimination rate constant (λz) for each profile was numerically estimated using iteratively re-weighted non-linear least squares analysis with a weighting factor of 1/Ĉ^2. The area under the concentration-time curve to the last actual time point (AUC0-t) and infinity (AUC0-∞) for each data set were estimated using a linear (ascending) trapezoidal method. The extrapolated area to infinity (AUC0-∞) was estimated, where possible, using AUC0-t and the predicted value (Ĉn) at the last time point for each profile.
[formula] [formula] The Ci values correspond to the actual concentrations of drug at time ti for n data points. The C0 value was extrapolated using the first 4 time points.

Series [2] concerns the target T1, Thromboxane receptor (TP) (Homo sapiens, UniProt P21731).
T1 construct: expressed in transfected cells; host or cells: HEK-293
T1 sequence (P21731 1-343): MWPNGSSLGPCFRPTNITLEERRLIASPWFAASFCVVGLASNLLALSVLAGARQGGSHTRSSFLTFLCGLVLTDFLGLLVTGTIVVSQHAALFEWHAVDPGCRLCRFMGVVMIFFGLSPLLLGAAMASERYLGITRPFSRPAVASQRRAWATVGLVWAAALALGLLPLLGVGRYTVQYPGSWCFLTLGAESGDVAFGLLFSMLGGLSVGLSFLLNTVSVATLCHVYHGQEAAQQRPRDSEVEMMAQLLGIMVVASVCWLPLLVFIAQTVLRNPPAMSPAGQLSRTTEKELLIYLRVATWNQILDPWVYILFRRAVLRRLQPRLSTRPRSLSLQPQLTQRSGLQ
In words: TP Receptor Radioligand Binding ([3H] SQ-29548). The note with it: Human recombinant HEK-293 cells. How it is done:
Using these experimental conditions Human recombinant HEK-293 cells, Ligand: 5 nM [^3H] […] J Pharmacol Exp Ther. 245(3):786-92792, and Saussy D L Jr, Mais D E, Burch R M and Halushka P V (1986) Identification of a putative thromboxane A2/prostaglandin H2 receptor in human platelet membranes. J Biol Chem. 261(7):3025-9.
(§1) The data were transformed to semi-log and then analysed using non-linear regression to a four-parameter dose-response curve Y=Bottom+(Top−Bottom)/(1+10^((Log EC50−X)*HillSlope)) using the log(agonist) vs. response—Variable slope function of GraphPad Prism software (http://graphpad.com/help/prism5/prism5help.html?usingnonlinear_regression_step_by_s.ht m).

The target of series [3] is T2, Thromboxane synthase (Homo sapiens, UniProt P24557).
T2 sequence (P24557 1-533): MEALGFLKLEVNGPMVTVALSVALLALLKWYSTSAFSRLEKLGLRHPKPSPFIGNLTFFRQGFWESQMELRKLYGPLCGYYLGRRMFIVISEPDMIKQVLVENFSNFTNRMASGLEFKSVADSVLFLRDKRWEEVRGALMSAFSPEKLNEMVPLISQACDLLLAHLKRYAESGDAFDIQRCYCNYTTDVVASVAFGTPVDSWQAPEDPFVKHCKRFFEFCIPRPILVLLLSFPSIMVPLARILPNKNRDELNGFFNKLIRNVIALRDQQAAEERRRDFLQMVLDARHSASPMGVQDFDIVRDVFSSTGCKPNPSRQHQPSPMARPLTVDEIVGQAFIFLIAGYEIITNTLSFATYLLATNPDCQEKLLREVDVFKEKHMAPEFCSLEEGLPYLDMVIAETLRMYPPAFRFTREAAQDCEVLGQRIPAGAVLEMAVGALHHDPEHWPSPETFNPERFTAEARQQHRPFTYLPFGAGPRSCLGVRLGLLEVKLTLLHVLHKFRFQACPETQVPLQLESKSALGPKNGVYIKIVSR
In words: Human Platelet Thromboxane Synthase Assay. Format: biochemical. The method, then: Using these experimental conditions Substrate: 10 μM PGH2, Vehicle: 1% DMSO
Pre-incubation time, temp: 15 min at 25° C., Incubation time, temp: 3 min at 25° C.
1. Imidazole derivatives. J Med Chem. 24(10):1139-48.
as §1

Series [4] has as its system arterial thrombosis in a mouse model. In words: FeCl3 arterial thrombosis model (femoral artery, laser Doppler blood flow). Format: in vivo, mice. The method, then:
• Vehicle (DMSO/PEG 400, 5/95) • Dose of 1, 3, 10, 30, 100 and 300 mg/kg of Prodrug 3 in vehicle • Saline • Aspirin (dose of 100 mg and 600 mg/kg in vehicle) • Aspirin (Aspégic from Sanofi Synthelabo; dissolved in Saline) • Clopidogrel (Plavix from Sanofi Pharma; dissolved in H2O)
The solutions are diluted 3.3-fold in saline and 100 μl/25 g is injected. Thus, the above-mentioned doses of 100 and 300 mg/kg of compound correspond to final doses of 30 and 100 mg/kg.
Solutions are injected (100 μl/25 g body weight) i.v. in the tail vein over 2 min to obtain doses of each compound of 30 mg/kg and 100 mg/kg. Aspirin is given the same way at a dose of 200 mg/kg. Clopidogrel is administered by oral gavage at a dose of 20 mg/kg at 6-7 hours prior to the experiment. The animals assigned to each group are matched for body weight. Mice are typically 8-10 weeks old males and are in a 100% Swiss genetic background.
The flow in each image is expressed as a percentage of that at the contralateral side, and data are averaged for all 120 images to determine total flow. The same analysis is performed for 10 min intervals (which gives essentially the same information as the area under the curve). […] Flow before treatment is recorded as 100%, and that in occluded arteries as 0%. At the end of the experiment, blood is collected on 0.01M citrate buffer by heart puncture for determination of blood cell counts. Plasma is prepared by centrifugation and stored at −20° C. for determination of drug levels.
Statistical analysis for differences between two groups is performed by non-parametric Student t-test. Occlusion times >30 min were considered equal to 30 min for statistical analysis. Significance is set at p<0.05.

The mark [5] stands for this setting: i.v., 3.56 mg/kg, DMSO/PEG400/PBS 1X (5%/30%/65%).
The mark [6] stands for this setting: p.o., 10 mg/kg, solid in capsules.
[7] abbreviates: i.v., 3.53 mg/kg, DMSO/PEG400 (5%/95%).

Where two headings read alike, the source gives them in different places.

The half-life is how long it takes for the measured level to halve. A word on the Tmax: it is the time at which the peak concentration occurs. Consider `O=C(O)CC/C=C\C[C@@H]1CO[C@H](c2ccccc2Cl)O[C@@H]1c1ccccc1O` [drawing 18], for which, in series [1] (male, Wistar, plasma, iv, 3.56 mg/kg, i.v., 3.56 mg/kg, DMSO/PEG400/PBS 1X (5%/30%/65%)), the half-life was determined as 0.767 ± 0.433 h. For the same compound, the Tmax in series [1] (male, Wistar, plasma, iv, 3.56 mg/kg, i.v., 3.56 mg/kg, DMSO/PEG400/PBS 1X (5%/30%/65%), read-out: Tmax (converted)) is 0.0833 h. For the same compound, in series [1] (setting [5]), the “Cmax (ng/ml)/Dose (mg/kg)” value was 614 ± 68 (ng/ml)/Dose (mg/kg), the “Lin-AUC (0-∞) (ng•min/ml)/Dose (mg/kg)” value was 12050 ± 1835 (ng•min/ml)/Dose (mg/kg) and the T-Last is 3 to 6 h.
On to `O=C(O)CC/C=C\C[C@@H]1CO[C@H](c2ccccc2Cl)O[C@@H]1c1ccccc1O` [drawing 20], for which the half-life in series [1] (male, Wistar, plasma, po, 10 mg/kg, p.o., 10 mg/kg, solid in capsules) was 1.58 ± 0.567 h. The Tmax in series [1] (male, Wistar, plasma, po, 10 mg/kg, p.o., 10 mg/kg, solid in capsules, read-out: Tmax (converted)) is 1.5 h. Besides, in series [1] (setting [6]), the “Cmax (ng/ml)/Dose (mg/kg)” value was 236 ± 63 (ng/ml)/Dose (mg/kg), the “Lin-AUC (0-∞) (ng•min/ml)/Dose (mg/kg)” value is listed as 27195 ± 4453 (ng•min/ml)/Dose (mg/kg) and the T-Last lay in the range of 6 to 12 h.
With `COc1ccccc1[C@H]1OC(c2ccccc2Cl)OC[C@H]1C/C=C\CCC(=O)O` (stereo partly shown) [drawing 19], in series [1] (male, Wistar, plasma, iv, 3.53 mg/kg, i.v., 3.53 mg/kg, DMSO/PEG400 (5%/95%)), the half-life is 3.03 ± 0.917 h. Besides, in series [1] (male, Wistar, plasma, iv, 3.53 mg/kg, i.v., 3.53 mg/kg, DMSO/PEG400 (5%/95%), read-out: Tmax (converted)), the Tmax is 0.0833 h. Besides, in series [1] (setting [7]), the “Cmax (ng/ml)/Dose (mg/kg)” value is 554 ± 154 (ng/ml)/Dose (mg/kg), the “Lin-AUC (0-∞) (ng•min/ml)/Dose (mg/kg)” value is 17416 ± 1734 (ng•min/ml)/Dose (mg/kg) and the T-Last lay within 8 to 12 h.
The term IC50 denotes the concentration needed to halve the response being measured. One may read the Ki as the dissociation constant of the complex between target and ligand, obtained from inhibition or displacement. Broadly, the inhibition is the drop in the measured response relative to a control, in per cent. In the case of `COc1ccccc1[C@H]1O[C@@H](c2ccccc2Cl)OC[C@H]1C/C=C\CCC(=O)O` [Compound 5, (Z)-6-((2S,4S,5R)-2-(2-chlorophenyl)-4-(2-methoxyphenyl)-1,3-dioxan-5-yl)hex-4-enoic acid], in series [2], the IC50 turned out to be 0.0234 µM and the Ki came out at 0.0153 µM. Besides, the half-maximal inhibitory concentration (IC50) in series [3] was 20.4 µM. The compound also registered an inhibition at 30 µM in series [3] (at 30 μM) of 62%.
For the compound `COc1ccccc1[C@@H]1O[C@H](c2ccccc2Cl)OC[C@@H]1C/C=C\CCC(=O)O` [Compound 4, (Z)-6-((2R,4R,5S)-2-(2-chlorophenyl)-4-(2-methoxyphenyl)-1,3-dioxan-5-yl)hex-4-enoic acid], in series [2], the IC50 turned out to be 1.87 µM and the Ki amounted to 1.22 µM. In series [3], this compound registered an IC50 of 17.5 µM.
In the case of `COC(=O)[C@H](c1ccccc1Cl)N1CCc2sccc2C1` [Clopidogrel], the occlusion time entry in series [4] (20 mg/kg oral gavage 6-7 hours prior to the experiment) was “totally prevents occlusion within 30 min in 6/7 experiments”. In addition, in series [4] (20 mg/kg oral gavage 6-7 hours prior, versus vehicle), the total blood flow result is “significantly improved total blood flow”.
`CC(=O)Oc1ccccc1C(=O)O` [Aspirin]: the occlusion time result in series [4] (200 mg/kg i.v.) was “no effect on the occlusion time”. Also, the total blood flow result in series [4] (200 mg/kg i.v., versus vehicle) is on record as “no significant effect on the total blood flow”.
For `O=C(O)CC/C=C\C[C@@H]1CO[C@H](c2ccccc2Cl)O[C@@H]1c1ccccc1O` [drawing 24], in series [1] (setting [6]), the “Cmax (ng/ml)/Dose (mg/kg)” value is 115 ± 123 (ng/ml)/Dose (mg/kg); the “Lin-AUC (0-∞) (ng•min/ml)/Dose (mg/kg)” value was 17352 ± 14479 (ng•min/ml)/Dose (mg/kg); the T-Last lay in the range of 8 to 12 h; the “Terminal Half-life elimination, t½z” value was 2.22 ± 0.75 h. In addition, in series [1] (setting [6]), the Tmax turned out to be 3 ± 2.12 h.
Consider `COc1ccccc1[C@H]1OC(c2ccccc2Cl)OC[C@H]1C/C=C\CCC(=O)O` (stereo partly shown) [Prodrug 3], for which the total blood flow entry in series [4] (10 mg/kg in vehicle, i.v.) is recorded as “no effect on total blood flow”; in series [4] (30 mg/kg in vehicle, i.v.) it was “slightly improved total blood flow as compared to aspirin (p=0.055), but not as compared to vehicle”. The occlusion time entry in series [4] (30 mg/kg in vehicle (DMSO/PEG 400), i.v.) is “prolongs the occlusion time as compared to aspirin (p=0.024) and the parent compound, but has no effect as compared to vehicle”.
